Data taken from ChEMBL document CHEMBL1157257, “Bioactive ent-clerodane diterpenoids from the aerial parts of Baccharis gaudichaudiana” (2006).
Active and inactive are the calls of the source. No cut-off for these calls is given here.

Legend:
PC-12 [1] = assay: Effect on neurite outgrowth from rat PC12D cells at 10 to 100 umol after 48 hrs by phase-contrast microscopy; format: functional, cell-based
PC-12 [2] = assay: Enhancement of 2 ng/mL NGF-induced neurite outgrowth in rat PC12D cells at 100 umol after 48 hrs by phase-contrast microscopy relative to 50 ng/mL NGF alone; format: functional
PC-12 [3] = assay: Enhancement of NGF-induced neurite outgrowth in rat PC12D cells at 10 to 100 umol after 48 hrs by phase-contrast microscopy; format: functional, cell-based

Structure (SMILES)	Activity (PC-12 [1])	Activity (PC-12 [2])	Activity (PC-12 [3])
CO[C@@H]1C[C@H](CC[C@@]2(C)[C@H](C)CC[C@@]3(C)C(C(=O)O)=CCC[C@H]23)CO1	inactive	53%	–
COC(=O)CC(CO)CC[C@@]1(C)[C@H](C)C(=O)C[C@@]23COC(=O)C2=CCC[C@@H]31 (stereo not given in full)	–	–	inactive
CO[C@H]1C[C@H](CC[C@@]2(C)[C@H](C)CC[C@@]3(C)C(C(=O)O)=CCC[C@H]23)CO1	inactive	49%	–
